This note sets out measurements from US5591741A, “Fungicidal spiroheterocyclic derivatives” (American Cyanamid Company, priority 1993, dated 1997).

One test has as its system Plasmopara viticola. Briefly: Antisporulant activity against vine downy mildew (PVA). In kind it is in vivo. The note with it: vine leaves, antisporulant foliar spray, 600 ppm, 750 l/ha. In short, it runs like this:
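Cabernet Sauvignon vines (~8 cm) inoculated on lower leaf surfaces with 5×10^4 zoosporangia/ml, held 24 h at 21° C high humidity then 24 h glasshouse. Infected leaves sprayed underside with 600 ppm compound in 1:1 water/acetone, 0.04% Tween 20, 750 l/ha; 96 h glasshouse, 24 h humidity. Sporulating leaf area rated versus control.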

Another test has as its system Alternaria solani. Briefly: Activity against tomato early blight (AS). The class given is in vivo. Conditions: Table VI; tomato seedlings, contact prophylactic foliar spray, 4 days. Summed up: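 Plants were challenged with A. solani conidia (10^4 spores/ml) 24 h after a protective foliar spray of compound in 50:50 acetone/water plus 0.04% Tween 20. Held humid at 21° C for 4 days, then percent leaf area with lesions was scored as a rating relative to controls.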

The subject of another test is Botrytis cinerea. Briefly: Direct protectant activity against broad bean grey mould (BCB). The class given is in vivo. The note with it: direct protectant foliar spray, 600 ppm, 4 days. In short, it runs like this:
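Protectant foliar test: lesion coverage assessed 4 days after inoculation and rated relative to untreated or diluent-sprayed plants. Compound applied at 600 ppm to cv The Sutton leaves 24 h before 10^6 conidia/ml suspension; incubation at 22 °C in high humidity.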

A further test relates to Leptosphaeria nodorum. Briefly: Activity against wheat leafspot (LN). Conditions: direct therapeutic foliar spray, 600 ppm, 6-8 days. In kind it is in vivo. Summed up:
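Therapeutic foliar spray: compound at 600 ppm applied to single-leaf wheat (cv Norman) 24 h after inoculation with 1.5×10^6 conidia/ml. Disease control scored after 6-8 days at 22° C and 70% humidity as lesions per leaf versus untreated or diluent-sprayed controls.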

Test [1] relates to Erysiphe graminis f.sp. hordei. Briefly: Activity against barley powdery mildew, direct therapeutic (EGT). The class given is in vivo. The note with it: direct therapeutic foliar spray, 600 ppm, up to 7 days. Summed up:
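A curative spray at 600 ppm was applied to single-leaf Golden Promise barley inoculated with powdery mildew conidia the previous day. After up to 7 days at 18 °C and 40% humidity, disease control was rated from percent leaf area sporulating relative to untreated or diluent-sprayed controls.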

The subject of test [2] is Erysiphe graminis f.sp. hordei. The experiment in a line: Direct protectant activity against barley powdery mildew (EGP). The class given is in vivo. Conditions: direct protectant foliar spray, 8 days. In short, it runs like this: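 Rating reflects percentage of leaf area with sporulation compared with untreated or diluent-sprayed controls. Protectant spray was applied to single-leaf barley (cv Golden Promise) 24 h before conidia inoculation. Plants were kept at 18 °C and 40% RH throughout, with 8 days of disease development.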

In a further test the test system is Phytophthora infestans. In kind it is in vivo. Conditions: tomato, direct protectant foliar spray.
Test [3] has as its system Pseudocercosporella herpotrichoides. The experiment in a line: Activity against wheat eyespot in-vitro (PHI). In kind it is cell-based. The note with it: 10 ppm, 10 days, 20° C., mycelial growth. In short, it runs like this:
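Mycelial growth was scored after 10 days at 20 °C against untreated or diluent controls. The broth was half-strength potato dextrose, holding 10 ppm test compound (from acetone) and 5×10^4 fragments/ml of the eyespot fungus.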

A further test concerns Rhizoctonia solani. The experiment in a line: Activity against Rhizoctonia in-vitro (RSI). Conditions: 10 ppm, 10 days, 20° C., mycelial growth. In kind it is cell-based. In short, it runs like this: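 Compound at a final 10 ppm (acetone vehicle) in half-strength PDB, inoculated with 5×10^4 fragments/ml of shaken-culture R. solani mycelium. After incubation at 20° C for 10 days, growth scored as a rating versus untreated or diluent-treated controls.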

Another test has as its system Venturia inaequalis. Briefly: Activity against apple scab in-vitro (VII). In kind it is cell-based. Conditions: 10 ppm, 10 days, 20° C., mycelial growth. Summed up: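 V. inaequalis propagules (5×10^4/ml, malt agar-grown) were exposed in half-strength PDB to 10 ppm final test compound delivered in acetone. Growth was scored after incubation for 10 days at 20° C, as a rating relative to untreated or diluent-sprayed controls.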

The test system of the next test is Pyricularia oryzae. In kind it is in vivo. Conditions: rice seedlings, direct therapeutic foliar spray, 600 ppm, 4-5 days.

Regarding `CC(C)(C)C1CCC2(CC1)CC(NC1CCCCC1)CO2` (stereo not shown) [Compound 16], the “disease control rating PVA” value with Plasmopara viticola is 0 (less than 50% disease control). The “disease control rating AS” value with Alternaria solani is 2 (greater than 80% disease control). In addition, the “disease control rating BCB” value in the test on Botrytis cinerea is reported as 1 (about 50-80% disease control). Moreover, the “disease control rating LN” value in the test with Leptosphaeria nodorum was 1 (about 50-80% disease control). Besides, the “disease control rating EGT” value in test [1] is given as 2 (greater than 80% disease control). In addition, the “disease control rating EGP” value in test [2] is recorded as 2 (greater than 80% disease control). Also, the “disease control rating PIP” value in the test with Phytophthora infestans was 0 (less than 50% disease control). In addition, in test [3], the “disease control rating PHI” value is 0 (less than 50% disease control). Further, the “disease control rating RSI” value with Rhizoctonia solani is listed as 0 (less than 50% disease control). The “disease control rating VII” value in the test with Venturia inaequalis is on record as 2 (greater than 80% disease control). In the test on Pyricularia oryzae, the “disease control rating PO” value is recorded as 0 (less than 50% disease control).
With `CC1CCCCN1C1COC2(CCC(C(C)(C)C)CC2)C1` (stereo not shown) [Compound 17], the “disease control rating PVA” value in the test with Plasmopara viticola was 0 (less than 50% disease control). In the test on Alternaria solani, the “disease control rating AS” value is reported as 0 (less than 50% disease control). For the same molecule, the “disease control rating BCB” value in the test on Botrytis cinerea is reported as 0 (less than 50% disease control). Moreover, in the test on Leptosphaeria nodorum, the “disease control rating LN” value is 0 (less than 50% disease control). Besides, the “disease control rating EGT” value in [1] is given as 2 (greater than 80% disease control). The “disease control rating EGP” value in test [2] is 2 (greater than 80% disease control). Also, the “disease control rating PIP” value in the test with Phytophthora infestans was 0 (less than 50% disease control). Also, the “disease control rating PHI” value in [3] was 0 (less than 50% disease control). Moreover, the “disease control rating RSI” value in the test on Rhizoctonia solani was 0 (less than 50% disease control). The “disease control rating VII” value in the test with Venturia inaequalis is reported as 0 (less than 50% disease control). In addition, the “disease control rating PO” value in the test on Pyricularia oryzae is given as 0 (less than 50% disease control).
For the molecule `CC1CCCN(C2COC3(CCC(C(C)(C)C)CC3)C2)C1` (stereo not shown) [Compound 18], the “disease control rating PVA” value with Plasmopara viticola is recorded as 0 (less than 50% disease control). In addition, the “disease control rating AS” value in the test on Alternaria solani is 0 (less than 50% disease control). For the same molecule, the “disease control rating BCB” value with Botrytis cinerea is recorded as 0 (less than 50% disease control). In addition, the “disease control rating LN” value with Leptosphaeria nodorum is given as 1 (about 50-80% disease control). The “disease control rating EGT” value in test [1] is recorded as 2 (greater than 80% disease control). In addition, the “disease control rating EGP” value in test [2] was 2 (greater than 80% disease control). The “disease control rating PIP” value in the test with Phytophthora infestans is 0 (less than 50% disease control). Besides, the “disease control rating PHI” value in test [3] was 0 (less than 50% disease control). Besides, the “disease control rating RSI” value in the test with Rhizoctonia solani is 0 (less than 50% disease control). In the test with Venturia inaequalis, the “disease control rating VII” value is 1 (about 50-80% disease control). Further, in the test on Pyricularia oryzae, the “disease control rating PO” value is recorded as 0 (less than 50% disease control).
`CC1CCN(C2COC3(CCC(C(C)(C)C)CC3)C2)CC1` (stereo not shown) [Compound 19]: in the test on Plasmopara viticola, the “disease control rating PVA” value is given as 0 (less than 50% disease control). In the test on Alternaria solani, the “disease control rating AS” value is given as 0 (less than 50% disease control). Also, the “disease control rating BCB” value in the test on Botrytis cinerea is given as 0 (less than 50% disease control). For the same molecule, in the test on Leptosphaeria nodorum, the “disease control rating LN” value is given as 1 (about 50-80% disease control). Also, the “disease control rating EGT” value in [1] is given as 2 (greater than 80% disease control). Moreover, the “disease control rating EGP” value in test [2] is 2 (greater than 80% disease control). Also, the “disease control rating PIP” value in the test with Phytophthora infestans is listed as 0 (less than 50% disease control). The “disease control rating PHI” value in test [3] is on record as 0 (less than 50% disease control). Further, the “disease control rating RSI” value in the test on Rhizoctonia solani was 0 (less than 50% disease control). In the test with Venturia inaequalis, the “disease control rating VII” value is 1 (about 50-80% disease control). Moreover, in the test with Pyricularia oryzae, the “disease control rating PO” value is 0 (less than 50% disease control).
`CN(C1CCCCC1)C1COC2(CCC(C(C)(C)C)CC2)C1` (stereo not shown) [Compound 20]: in the test on Plasmopara viticola, the “disease control rating PVA” value was 0 (less than 50% disease control). Besides, the “disease control rating AS” value in the test with Alternaria solani was 0 (less than 50% disease control). The “disease control rating BCB” value with Botrytis cinerea is given as 0 (less than 50% disease control). For the same molecule, the “disease control rating LN” value in the test with Leptosphaeria nodorum is 0 (less than 50% disease control). The “disease control rating EGT” value in test [1] was 2 (greater than 80% disease control). Also, the “disease control rating EGP” value in [2] is 2 (greater than 80% disease control). The “disease control rating PIP” value in the test on Phytophthora infestans is listed as 0 (less than 50% disease control). The “disease control rating PHI” value in [3] is given as 0 (less than 50% disease control). Besides, the “disease control rating RSI” value in the test with Rhizoctonia solani is listed as 0 (less than 50% disease control). Moreover, the “disease control rating VII” value with Venturia inaequalis is given as 1 (about 50-80% disease control). Besides, the “disease control rating PO” value with Pyricularia oryzae is given as 0 (less than 50% disease control).
`CC(C)(C)C1CCC2(CC1)CC(N1CCCCCC1)CO2` (stereo not shown) [Compound 21]: the “disease control rating PVA” value in the test on Plasmopara viticola is reported as 0 (less than 50% disease control). In addition, the “disease control rating AS” value in the test with Alternaria solani was 0 (less than 50% disease control). The “disease control rating BCB” value in the test with Botrytis cinerea was 2 (greater than 80% disease control). Moreover, the “disease control rating LN” value in the test with Leptosphaeria nodorum is recorded as 0 (less than 50% disease control). Moreover, the “disease control rating EGT” value in [1] was 2 (greater than 80% disease control). The “disease control rating EGP” value in test [2] was 2 (greater than 80% disease control). Further, the “disease control rating PIP” value with Phytophthora infestans is listed as 0 (less than 50% disease control). In [3], the “disease control rating PHI” value is reported as 0 (less than 50% disease control). In the test with Rhizoctonia solani, the “disease control rating RSI” value was 0 (less than 50% disease control). The “disease control rating VII” value in the test on Venturia inaequalis is 1 (about 50-80% disease control). The “disease control rating PO” value in the test with Pyricularia oryzae is 0 (less than 50% disease control).
Take `CC(C)(C)C1CCC2(CC1)CC(Nc1ccccc1)CO2` (stereo not shown) [Compound 22]: the “disease control rating PVA” value in the test with Plasmopara viticola was 0 (less than 50% disease control). In the test with Alternaria solani, the “disease control rating AS” value is given as 0 (less than 50% disease control). The “disease control rating BCB” value in the test with Botrytis cinerea is 0 (less than 50% disease control). Besides, the “disease control rating LN” value with Leptosphaeria nodorum is listed as 0 (less than 50% disease control). In test [1], the “disease control rating EGT” value is 1 (about 50-80% disease control). In addition, the “disease control rating EGP” value in test [2] is reported as 1 (about 50-80% disease control). Also, the “disease control rating PIP” value in the test on Phytophthora infestans is 0 (less than 50% disease control). Further, in test [3], the “disease control rating PHI” value is recorded as 0 (less than 50% disease control). Besides, the “disease control rating RSI” value with Rhizoctonia solani was 0 (less than 50% disease control). For the same molecule, in the test on Venturia inaequalis, the “disease control rating VII” value was 0 (less than 50% disease control). Also, in the test on Pyricularia oryzae, the “disease control rating PO” value is given as 0 (less than 50% disease control).
Consider `CC(C)(C)C1CCC2(CC1)CC(Nc1ccc(Cl)cc1)CO2` (stereo not shown) [Compound 23], for which the “disease control rating PVA” value in the test with Plasmopara viticola is 0 (less than 50% disease control). Also, in the test on Alternaria solani, the “disease control rating AS” value is on record as 0 (less than 50% disease control). Further, the “disease control rating BCB” value with Botrytis cinerea was 0 (less than 50% disease control). Besides, the “disease control rating LN” value with Leptosphaeria nodorum is given as 0 (less than 50% disease control). Moreover, the “disease control rating EGT” value in test [1] was 0 (less than 50% disease control). Besides, in [2], the “disease control rating EGP” value was 0 (less than 50% disease control). For the same molecule, the “disease control rating PIP” value in the test on Phytophthora infestans is on record as 0 (less than 50% disease control). Moreover, the “disease control rating PHI” value in test [3] is 0 (less than 50% disease control). Further, the “disease control rating RSI” value in the test with Rhizoctonia solani is reported as 0 (less than 50% disease control). In addition, the “disease control rating VII” value in the test on Venturia inaequalis was 2 (greater than 80% disease control). Also, in the test with Pyricularia oryzae, the “disease control rating PO” value is 0 (less than 50% disease control).
